Experimental data reported in publication PMC6396024, “Artemin and an Artemin-Derived Peptide, Artefin, Induce Neuronal Survival, and Differentiation Through Ret and NCAM” (Frontiers in Molecular Neuroscience, 2019).
Bridge positions count the residues as written; N and C are the ends. Ends that are not written are not given here. I, II: the chains in the order shown.

B1: recombinant human Artemin (ARTN) (ligand, UniProt Q5T4W7 108-220, looked up)
chain: AGGPGSRARAAGARGCRLRSQLVPVRALGLGHRSDELVRFRFCSGSCRRARSPHDLSLASLLGAGALRPPPGSRPVSQPCCRPTRYEAVSFMDVNSTWRTVDRLSATACGCLG
notes: Artemin (ARTN), human, UniProt D3DPX9; source: bought: R&D Systems

What was measured:
Type in all cases: cell-based, Wistar rat
[1] = test system: RET; cerebellar granule neurons (CGNs); experiment: Neurite outgrowth in CGNs transfected with dominant negative RET (dnRET); settings: 24 h, P2-d 8 μg/ml, ARTN 0.21 nM, artefin 1.4 μM; for neurite outgrowth in mock-transfected neurons: empty vector, versus control
Protocol: (§1) Cerebellar granule neurons (CGNs) were prepared from 7-day-old Wistar rat pups (Charles River Laboratories, Sulzfeld, Germany) as previously described ([Schousboe et al., 1989]). Briefly, pups were decapitated, and the cerebellum was removed and cleared from blood vessels and meninges in ice-cold modified Krebs-Ringer buffer. The cerebellum was dissociated by chopping and trypsinization. Cells were washed in Krebs-Ringer buffer containing DNAse I (Sigma, St. Louis, MO, United States) and soybean trypsin inhibitor (Sigma) to stop trypsinization, and the remaining tissue pieces were pelleted by centrifugation. Cells were then washed in Krebs-Ringer buffer containing Ca^2+ and Mg^2+ and re-suspended in appropriate Neurobasal^TM medium (Invitrogen, Taastrup, Denmark) with supplements depending on the experiment.
(§2) To evaluate the involvement of NCAM and RET in neurite outgrowth induced by either ARTN or artefin, CGNs (3 × 10^6 per transfection) were transfected with 3 μg DNA using a Nucleofector^TM 2b device and a Rat Neuron Nucleofector Kit (Amaxa, Inc., Gaithersburg, MD, United States). A kinase-deleted dominant negative RET insert was obtained by direct PCR using a commercially available clone (IRAKp961P02132Q; RZPD, Berlin, Germany) encoding full-length mouse RET coding sequence 586–3807 nt. as template. The upper primer […] contained a NheI restriction site and Kozak sequence, and the lower primer […] encoded Streptag II and NotI restriction sites. The dominant negative RET insert and the pcDNA5/FRT expression vector containing the Flp-In system were cut with NheI and NotI restriction enzymes, purified, ligated using the Rapid DNA Ligation Kit (Roche, Basel, Switzerland), and transfected into One Shot TOP10 E. coli (Invitrogen, Taastrup, Denmark). E. coli colonies containing the dominant negative RET insert were identified by PCR, and one insert-positive colony was used for plasmid purification. The identity of the purified plasmid was verified by restriction cutting and sequencing of the insert. For NCAM knock down, we used a pENTR vector containing the shRNA expression cassette for NCAM knock down ([Hansen et al., 2007]). An empty vector was used as a control. To identify transfected neurons, all transfections were performed as co-transfections with 0.5 μg pEGFP-N1, an expression vector encoding the enhanced variant of green fluorescent protein (GFP; Clontech, Palo Alto, CA, United States). Transfected CGNs were seeded in Neurobasal^TM-A medium supplemented with 2% (v/v) B27, 5% (v/v) FCS, and 2 mM Glutamax at a density of 1 × 10^5 cells/cm^2.
(§3) To estimate neurite outgrowth, neurons were fixated 24 h after stimulation and stained with rabbit anti-growth-associated-protein-43 (GAP-43) antibody (Chemicon International, Inc., Temecula, CA, United States) or anti-GFP antibody (for transfection experiment) overnight at 4°C followed by incubation with secondary Alexa-conjugated goat anti-rabbit antibodies (Invitrogen, Taastrup, Denmark). In case of experiments with plasmid transfection, the transfection efficiency was ca. 20% of total cells and the neurite outgrowth was evaluated only in GFP-positive, i.e., transfected, cells. For representative pictures, cells were additionally co-stained with Hoechst 33258.
(§4) Computer-assisted fluorescent microscopy was performed using a Nikon Diaphot 300 inverted microscope (Nikon) equipped with a Nikon Plan 20× objective and coupled to a video camera (Grundig Electronics, Germany). For each condition in each experiment, including the experiment with transfections, images of approximately 200 cells were recorded in systematic series of fields of view, and neurite outgrowth was quantified using a stereological approach as previously described ([Rønn et al., 2000]).
(§5) FIGURE 7 Neuritogenic effect of ARTN and artefin in (A) dominant negative RET or (B) knock down NCAM-expressing CGNs. […]

[2] = test system: cerebellar granule neurons (CGNs); experiment: Neurite outgrowth assay in CGNs; settings: 24 h; for maximum level of neurite outgrowth: untreated control = 100%, mean of four independent experiments; for neurite outgrowth, single agent in competition assay: ARTN 2.1 nM alone or artefin 4.2 μM alone, paired t-test versus control; for overall neuritogenic effect: ARTN 0.013–2.1 nM, artefin 0.16–37.9 μM, one-way ANOVA
Protocol: as §1
Cerebellar granule neurons CGNs were re-suspended in Neurobasal^TM medium supplemented with 2% (v/v) B27, 0.5% (v/v) glutamax, 100 U/ml penicillin, 100 μg/ml streptomycin, 0.4% (w/v) BSA, and 20 mM HEPES and were seeded in 8-well LabTek Permanox chamber slides (Nunc) at a density of 1 × 10^4 cells/cm^2. Various concentrations of ARTN, artefin, scrambled artefin, or reversed artefin were added to neurons immediately after seeding. For the RET inhibition assay, the inhibitory goat anti-mouse RET antibody (4.1 μg/ml; R&D systems, Abingdon, United Kingdom) or control goat IgG (4.1 μg/ml; Santa Cruz Biotechnology, Dallas, TX, United States) were added to neurons 1 h before stimulation with ARTN (0.042 nM) […]. For the competition assay between growth factor and mimetic peptide, a combination of ARTN (2.1 nM) and artefin (4.2 μM) was added to the cells immediately after seeding. To inhibit Fibroblast growth factor receptor (FGFR) pharmacologically, inhibitor of FGFR, SU5402 (Sigma), was added to the growth medium in serial dilutions of 20, 40, and 80 μM immediately after plating of CGNs, followed by addition of either P2-d (8 μg/ml), ARTN (0.21 nM), or artefin (1.4 μM) 1 h after the plating.
as §3, §4
FIGURE 3 Neurite outgrowth induced by ARTN (A), artefin-dendrimer (B), and artefin-monomer (C) in CGNs. Cells were stimulated with ARTN (0.013, 0.042, 0.13, 0.42, and 2.1 nM) or artefin (0.16, 0.47, 1.4, 4.2, 12.6, and 37.9 μM) for 24 h. For the unstimulated control, the absolute length of neurites was 11.47 ± 1.5 μm. Results from four independent experiments are expressed as percentage of untreated control set to 100% and presented as mean ± SEM. The mean neurite outgrowth lengths were compared using one-way ANOVA for repeated measurements. The effect of individual concentrations of ARTN and artefin was compared to control using one-way ANOVA with Dunnett’s post-hoc test, ^∗p < 0.05; ^∗∗p < 0.01. […]

[3] = test system: NCAM; cerebellar granule neurons (CGNs); experiment: Neurite outgrowth in CGNs with NCAM knock down (NCAM shRNA); settings: 24 h, P2-d 8 μg/ml, ARTN 0.21 nM, artefin 1.4 μM; for neurite outgrowth in NCAM knock down neurons: NCAM shRNA; for neurite outgrowth in mock-transfected neurons: empty vector, versus control
Protocol: as §1, §2, §3, §4, §5

Molecule	neurite outgrowth in dnRET-transfected neurons [1]	neurite outgrowth in mock-transfected neurons [1]	concentration of maximum neurite outgrowth ([2]; artefin as dendrimer)	neurite outgrowth compared to ARTN ([2]; artefin dendrimer, higher length of neurites)	maximum level of neurite outgrowth ([2]; artefin as dendrimer)	neurite outgrowth, single agent in competition assay [2]	overall neuritogenic effect [2]	neurite outgrowth effect of artefin in the presence of ARTN ([2]; artefin 4.2 μM co-incubated with ARTN 2.1 nM, p < 0.001 versus artefin alone)	neurite outgrowth, sequence specificity ([2]; tetramers, 4.2 μM, paired t-test versus untreated control)	neurite outgrowth in NCAM knock down neurons [3]	neurite outgrowth in mock-transfected neurons [3]	concentration of maximum neurite outgrowth [2]	dose-response of neurite outgrowth ([2]; 0.013–2.1 nM)
I: RSPHDLSLASLLGAGKK-NH2 / II: RSPHDLSLASLLGAGK / III: RSPHDLSLASLLGAG / IV: RSPHDLSLASLLGAG (amide I:16-IV:C, I:17-II:C, II:16-III:C; C-terminus assumed) [artefin]	abrogated in dnRET-transfected neurons (p < 0.01 versus artefin alone	significantly increased neurite outgrowth in mock-transfected neurons (p < 0.01 versus control)	4.2 µM	more effective (higher length of neurites) than ARTN	404 % of control	significant increase in neurite outgrowth (p < 0.001)	statistically significant (F = 9.723, p < 0.0001)	eliminated	statistically significant increase in neurite length when compared to the control condition (p < 0.01)	abrogated in neurons where NCAM expression was knocked down (p < 0.001	promoted the neurite outgrowth in mock-transfected neurons (p < 0.01)	–	–
B1	abolished in neurons expressing dnRET (p < 0.05 versus ARTN alone	significantly increased by ARTN in mock-transfected neurons (p < 0.05 versus control)	–	–	210 % of control	equivalent to that of the control condition	statistically significant (F = 5.069, p < 0.01)	–	–	completely abolished the neurite outgrowth effect of ARTN	significantly higher level of neurite outgrowth compared to unstimulated controls (p < 0.05	4.2e-05 µM	bell-shaped dose-response manner
